{
  "source": "patent US20190127313A1",
  "about": "“ANTIMICROBIAL AGENTS” (THE UNIVERSITY OF WARWICK, priority 2016, published 2019)",
  "key": {"[1]": {"test": "Alkaline hydrolysis of the ester linkage, LC-MS analysis", "type": "physicochemical", "conditions": "0.4M KOH, 37° C., 4h", "method": "The relative stereochemistry of the dihydroxycyclohexane carboxylic acid (DHCCA) moiety in vibroxin was determined by hydrolyzing the ester linkage in vibroxin under basic conditions. […] The same was not true for the corresponding portion of enacyloxin, which had degraded. […] The alkaline hydrolysis reaction was carried out by combining 15 μl of a 5 mg/ml solution of vibroxin/enacyloxin in methanol with 185 μl 0.4M KOH. Following incubation at 37° C. for 4h, the mixture was acidified (<pH 4) with 35% HCl. The samples were analysed by UHPLC-ESI-QTOF-MS analysis using a Dionex UltiMate 3000 RS UHPLC connected to a Zorbax Eclipse Plus column (C18, 100×2.1 mm, 1.8 μm) coupled to a Bruker MaXis IMPACT mass spectrometer. The mass spectrometer was operated in positive ion mode with a scan range of 50-3000 m/z."}, "[2]": {"system": "multidrug-resistant A. baumannii strains", "test": "MIC against multidrug-resistant A. baumannii strains", "type": "cell-based", "conditions": "Acinetobacter baumannii", "method": "Minimal inhibitory concentrations (MICs) were determined by the CLSI broth microdilution method. Briefly, representative members of the ESKAPE panel of pathogens were grown overnight in Mueller-Hinton (MH) broth at 30° C. Each organism was diluted to a final concentration of 5×10^5 […] using McFarland turbidity standards. Concentrations of vibroxin followed twofold dilutions starting at 32 μg/mL. Assays were incubated for 18h at 30° C."}, "[3]": {"system": "Enterobacter cloacae DSM16690", "test": "MIC by CLSI broth microdilution, ESKAPE panel", "type": "cell-based", "conditions": "MH broth, 18h at 30° C.", "method": "(§1) Minimal inhibitory concentrations (MICs) were determined by the CLSI broth microdilution method. Briefly, representative members of the […] panel of pathogens were grown overnight in Mueller-Hinton (MH) broth at 30° C. Each organism was diluted to a final concentration of 5×10^5 […] using McFarland turbidity standards. Concentrations of vibroxin followed twofold dilutions starting at 32 μg/mL. Assays were incubated for 18h at 30° C. […] Cell suspensions without visible growth were then plated out on LB agar plates to determine the minimal bactericidal concentration (MBC). The MBC was set as the lowest concentration required to kill 99.9% of the originally inoculated 5.10^5 CFU/ml. All MIC and MBC determinations were performed in triplicate."}, "[4]": {"system": "Klebsiella pneumoniae DSM26371", "test": "MIC by CLSI broth microdilution, ESKAPE panel", "type": "cell-based", "conditions": "MH broth, 18h at 30° C.", "method": "as §1"}, "[5]": {"system": "Pseudomonas aeruginosa DSM29239", "test": "MIC by CLSI broth microdilution, ESKAPE panel", "type": "cell-based", "conditions": "MH broth, 18h at 30° C.", "method": "as §1"}, "[6]": {"system": "Staphylococcus aureus DSM21979", "test": "MIC by CLSI broth microdilution, ESKAPE panel", "type": "cell-based", "conditions": "MH broth, 18h at 30° C.", "method": "as §1"}, "[7]": {"system": "Enterococcus faecium DSM25390", "test": "MIC by CLSI broth microdilution, ESKAPE panel", "type": "cell-based", "conditions": "MH broth, 18h at 30° C.", "method": "as §1"}, "[8]": {"system": "A2780 human ovarian cancer cells", "test": "Cytotoxicity, SRB assay, A2780 cells", "type": "cell-based", "conditions": "24 h exposure, 72 h recovery", "method": "The cells were obtained from the European Collection of Animal Cell Culture and grown as single monolayers in Roswell Park Memorial Institute medium (RPMI-1640) supplemented with 10% (v/v) fetal calf serum, 1% (v/v) 2 mM L-glutamine and 1% (v/v) penicillin (10 k units/mL)/streptomycin (10 mg/mL). Cells were kept at 310 K in a humidified atmosphere containing 5% CO2 and maintenance passages were done at ca. 80% confluency.\nFor cytotoxicity measurements, 96-well plates were used to seed 5000 A2780 cells per well. These were left to pre-incubate in drug-free media at 310 K for 48 h before adding various concentrations of vibroxin. A stock solution of vibroxin was prepared in 5% v/v DMSO and 95% v/v cell culture medium. Then, serial dilutions with culture medium were carried out to achieve working concentrations. […] The percentage of viable cells resulting from exposure to vibroxin was determined by measuring the absorbance due to soluble sulforohodamine relative to an untreated control. The absorbance measurements were carried out using a BioRad iMark microplate reader with a 470 nm filter. Mean percentage cell viability values+/−1 standard deviation were calculated from duplicates of triplicates in two independent sets of experiments."}, "[9]": {"system": "Acinetobacter baumannii AYE", "test": "MIC/MBC by CLSI broth microdilution, ESKAPE panel", "type": "cell-based", "method": "as §1"}, "[10]": {"system": "Acinetobacter baumannii DSM25645", "test": "MIC/MBC by CLSI broth microdilution, ESKAPE panel", "type": "cell-based", "method": "as §1"}, "[11]": {"system": "Acinetobacter baumannii AB5075", "test": "MIC/MBC by CLSI broth microdilution, ESKAPE panel", "type": "cell-based", "method": "as §1"}, "[12]": {"system": "Acinetobacter baumannii ATCC17978", "test": "MIC/MBC by CLSI broth microdilution, ESKAPE panel", "type": "cell-based", "method": "as §1"}, "[13]": {"system": "Acinetobacter baumannii S1", "test": "MIC/MBC by CLSI broth microdilution, ESKAPE panel", "type": "cell-based", "method": "as §1"}, "[14]": {"system": "A. baumannii strains", "conditions": "see Furukawa et al. 2007; cited from earlier work"}, "[15]": {"conditions": "lowest concentration required to kill 99.9%"}},
  "data": [
    {"compound": "CC/C=C/[C@@H](OC(N)=O)[C@@H](Cl)[C@H](O)CC(=O)[C@@H](O)[C@H](O)C(C)/C(Cl)=C/C=C/C=C(C)/C=C/C=C/C(=O)O[C@@H]1CC(C(=O)O)CC[C@@H]1O", "note": "(stereo partly shown) [enacyloxin, enacyloxin IIa, reference compound]", "values": [
      {"measurement": "polyketide chain resulting from alkaline hydrolysis of the ester linkage, detection by LC-MS", "setting": "[1]", "result": "had degraded"},
      {"measurement": "MIC", "setting": "[2]", "result": 2, "unit": "µg/mL"}
    ]},
    {"compound": "CC(/C=C/C=C/C(=O)OC1CC(C(=O)O)CCC1O)=C\\C=C\\C=C(/Cl)C(C)C(O)C(O)C(O)CC(O)/C=C/C=C/C(C)C", "note": "(stereo not shown) [vibroxin]", "values": [
      {"measurement": "MIC", "setting": "[3]", "result": "> 32", "unit": "µg/mL"},
      {"measurement": "MIC", "setting": "[4]", "result": "> 32", "unit": "µg/mL"},
      {"measurement": "MIC", "setting": "[5]", "result": "> 32", "unit": "µg/mL"},
      {"measurement": "MIC", "setting": "[6]", "result": "> 32", "unit": "µg/mL"},
      {"measurement": "MIC", "setting": "[7]", "result": "> 32", "unit": "µg/mL"},
      {"measurement": "polyketide chain resulting from alkaline hydrolysis of the ester linkage, detection by LC-MS", "setting": "[1]", "result": "could also be detected by LC-MS"},
      {"measurement": "chemical stability (comparison)", "setting": "[1]; alkaline hydrolysis", "result": "greater chemical stability than enacyloxin"},
      {"measurement": "IC50", "setting": "[8]", "result": "50 to 100", "unit": "µM"},
      {"measurement": "MIC", "setting": "[2]", "result": 2, "unit": "µg/mL"},
      {"measurement": "MIC", "setting": "[9]; MH broth, 18h at 30° C.", "result": 2, "unit": "µg/mL"},
      {"measurement": "MBC", "setting": "[9]; [15]", "result": 4, "unit": "µg/mL"},
      {"measurement": "MIC", "setting": "[10]; MH broth, 18h at 30° C.", "result": 2, "unit": "µg/mL"},
      {"measurement": "MBC", "setting": "[10]; [15]", "result": 8, "unit": "µg/mL"},
      {"measurement": "MIC", "setting": "[11]; MH broth, 18h at 30° C.", "result": 2, "unit": "µg/mL"},
      {"measurement": "MBC", "setting": "[11]; [15]", "result": 4, "unit": "µg/mL"},
      {"measurement": "MIC", "setting": "[12]; MH broth, 18h at 30° C.", "result": 2, "unit": "µg/mL"},
      {"measurement": "MBC", "setting": "[12]; [15]", "result": 8, "unit": "µg/mL"},
      {"measurement": "MIC", "setting": "[13]; MH broth, 18h at 30° C.", "result": 1, "unit": "µg/mL"},
      {"measurement": "MBC", "setting": "[13]; [15]", "result": 8, "unit": "µg/mL"}
    ]},
    {"compound": "C-18 deschloro-enacyloxin", "values": [
      {"measurement": "MIC", "setting": "[14]", "result": "> 32", "unit": "µg/mL"}
    ]}
  ]
}
